# In patent US20180265934A1, “COINCIDENCE REPORTER GENE SYSTEM” (The United States of America, as represented by the …, priority 2013, published 2018):
# Where two headings read alike, the source gives them in different places.
# Experiments:
# [1] = tested on: cAMP-response element (CRE), adenylyl cyclase signaling; experiment: Compound test, 24-point titration, 4×CRE-driven FLuc-P2A-RLuc (pCI-6.24), 384-well; type: cell-based; conditions: PTC124 on FLuc, BTS on RLuc; relative to non-treated control
# Experimental: (§1) For the compound test, forskolin, PTC124 and BTS were prepared in a 24-point intraplate titration format and pre-diluted in the cell culture medium. Purified pCI-6.24 construct was transfected into GRIPTITE 293 MSR cells (Life Technologies). Sixteen hours post transfection, cells were trypsinized and then dispensed at 2,000 cells/15 μL/well in 384-well tissue culture treated white/solid bottom plates (Greiner Bio-One North America). Five μL of pre-diluted compound was transferred into assay plates, resulting in a final concentration ranging from 0.027 nM to 227 μM (forskolin) and 0.011 nM to 91 μM (PTC124 and BTS). The assay plates were incubated at 37° C. for 10 hours. FLuc and RLuc activities were then detected using DUAL-GLO reagent (Promega) and a VIEWLUX plate reader (PerkinElmer). Concentration-response curves and concentrations of half-maximal activity (EC50) for each compound were generated by using PRISM 4 software (GraphPad Software, Inc., La Jolla, Calif.).
# [2] = tested on: PARK2 (Parkin) gene expression; experiment: Compound library screening, Parkin coincidence reporter cell line (FLuc-P2A-NLuc in PARK2 locus, BE(2)-M17 cells), 1536-well; type: cell-based, human; conditions: 24 h, titration
# Experimental: Construction of the Parkin coincidence reporter cell line by TALEN-mediated genome editing was carried out as follows. To generate a double-strand cleavage of the genomic DNA in the first codon of the PARK2 gene, constructs encoding transcription activator-like effector nuclease (TALEN) pairs (Right and Left) encoding components of the heterodimeric FokI nuclease were generated as described by Huang et al., Nature Biotechnology, 29: 699-700 (2011). The TALEN pair was designed to generate a double-strand cleavage at or near the first translation codon (ATG) within the Parkin gene. These constructs were transfected with Lipofectamine LTX (Life Technologies) into BE(2)-M17 cells (ATCC) […] along with a GFP-expressing marker plasmid and the coincidence reporter donor plasmid. After 48 hours of incubation in a tissue culture incubator, GFP-positive cells were sorted by FACS analysis and single clones were isolated and expanded. Once sufficient cell populations for each clone were achieved, analysis of correct genomic insertion of the Fluc-P2A-NLuc-PEST-PolyA coincidence reporter cassette that replaced the “ATGATAG” (SEQ ID NO: 362) sequence at the […] of the PARK2 gene exon 1 was ascertained by PCR and DNA sequencing of genomic DNA preparations (QIAGEN).
# Compound library screening in 1536-well plates was carried out as follows. The Parkin coincidence reporter cell line was seeded at a density of 2000 cell/well into white, solid bottom, tissue-culture treated (Greiner Bio-One), 1536-well microplates in a total of 5 μL/well of culture medium. After a 16 hour incubation in a tissue-culture incubator, a compound pin tool (Wako) was used to transfer 20 nL of compound dissolved in DMSO for library plates to the assay plates. Compounds were present in either a 6 or 12-point titration in the library plates. DMSO vehicle, CCCP, and PTC-124 were also added to the designated control well. After a 24 hour incubation in the tissue culture incubator, the volume in each well of both plates was reduced to 2 μL with a microplate aspiration system (BioTek) and then 2 μL of Firefly Luciferase assay reagent (Promega) was added to every well each plate and luminescent signal from each well of each plate was measured on a VIEWLUX plate reader (PerkinElmer). Following the first read, 2 μL of NanoLuc assay reagent (Promega) including a proprietary firefly luciferase inhibitor (to quench the firefly reaction) was added to every well of each plate. After a second 15 minute incubation at room temperature, the NanoLuc signal from each well of each plate was measured on the VIEWLUX. Raw luminescent signal is expressed as a % of the positive control (10 uM CCCP for NanoLuc and 500 nM PTC-124 for FLuc).
# Parkin expression = conditions: previously demonstrated, Bouman et al. 2011; cited from earlier work
# [3] = tested on: cAMP-response element (CRE) / CREB pathway; experiment: LOPAC1280 qHTS, 4×CRE-driven FLuc-P2A-RLuc coincidence reporter (pCI-6.24) in GripTite 293 MSR cells; type: cell-based; conditions: for EC50: GripTite 293 MSR
# Experimental: This protocol measures bioluminescence derived from both FLuc and RLuc expression from a single assay. […] Sixteen hours after transfection, cells were trypsinized and then dispensed at 2,000 cells/20 μL/well in 384-well tissue culture treated white/solid bottom plates (Greiner Bio-One North America, Monroe, N.C.). The assay plates were incubated at 37° C. for 10 hours before adding the DUAL-GLO detection reagent (Promega). Luminescence from luciferase activity was detected by using a VIEWLUX plate reader (PerkinElmer, Waltham, Mass.).
# Sixteen hours after transfection, cells were trypsinized and then dispensed at 500 cells/4 μL/well in 1,536-well tissue culture treated white/solid bottom plates (Greiner Bio-One North America) using a multidrop combi dispenser (Thermo Fisher Scientific). […] The assay plates were incubated at 37° C. for 10 hours before adding the DUAL-GLO detection reagent (3.5 μL+3.5 μL for each well) (Promega). Luminescence from luciferase activity was detected by using VIEWLUX (PerkinElmer). Each experimental plate contained forskolin as a positive control and DMSO as a negative control. Percentage activity was defined as the percentage signal relative to forskolin (100%) and DMSO (0%).
# SV40 promoter = experiment: Compound test, SV40-driven FLuc-P2A-RLuc construct (pCI-6.20); type: cell-based; conditions: pCI-6.20 construct
# Experimental: as §1
# This experiment was repeated with cells transfected with the pCl-6.20 construct, which encoded FLuc-P2A-RLuc under the control of the SV40 […].
# p53 RE = experiment: FLuc2P-NLucP reporter assay, p53 RE-driven construct (pCI-4.38) in HEK293 cells; type: cell-based; conditions: 10 μM etoposide, 24 h
# Experimental: (§2) The FLuc2P-NLucP reporter assay and compound test was carried out as follows. This protocol measures bioluminescence derived from both FLuc2P and NLucP. The purified DNA construct pCI-4.38 was transfected into HEK293 cells and the cells were cultured as described in Example 1. Sixteen hours after transfection, the cells were trypsinized and then dispensed at 2,000 cells/20 μL/well into two 384-well tissue culture treated white/solid bottom plates (Greiner Bio-One North America). After adding Etoposide (Sigma) or control DMSO, the assay plates were incubated at 37° C. for 24 hours before adding the ONE-GLO or NANO-GLO detection reagents (Promega). Luminescence from luciferase activity was detected by using a VIEWLUX plate reader (PerkinElmer).
# ARE = experiment: FLuc2P-NLucP reporter assay, ARE-driven construct (pCI-4.37) in HEK293 cells; type: cell-based; conditions: 100 μM tBHQ, 24 h
# Experimental: as §2, with “A” for “The”, “pCI-4.37” for “pCI-4.38”, “cells.” for “cells and the cells were cultured as described in Example 1.”, “and” for “and then”, “tert-Butylhydroquinone (tBHQ)” for “Etoposide”
compound,measurement,setting,value
O=C(O)c1cccc(-c2noc(-c3ccccc3F)n2)c1 [PTC124],effect on reporter activity by reporter stabilization,[1],increase the activity of the reporters
same,coincident reporter response (FLuc and NLuc),[2],do not elicit a coincident reporter response
same,signal obtained through reporter interference,[2],FLuc signal is obtained through reporter interference
N#CC(C#N)=NNc1cccc(Cl)c1 [carbonyl cyanide m-chlorophenyl hydrazone],induction of Parkin expression,Parkin expression,induce Parkin expression
"C=C[C@@]1(C)CC(=O)[C@]2(O)[C@@]3(C)[C@@H](O)CCC(C)(C)[C@@H]3[C@H](O)[C@H](OC(C)=O)[C@@]2(C)O1 [cpd 19, Forkskolin]",Ratio F/R,"[3]; FLuc EC50 / RLuc EC50, Table 5",0.90
same,EC50,"[3]; 10 h, Table 5, coincident activators, FLuc readout, 10 h, ~4 nM to 57 μM, read-out: FLuc EC50",1320 nM
same,EC50,"[3]; 10 h, Table 5, coincident activators, RLuc readout, 10 h, ~4 nM to 57 μM, read-out: RLuc EC50",1470 nM
same,EC50,"[3]; FLuc readout, 1536 interplate format, read-out: Intraplate Forskolin Control Mean",860 nM
same,EC50,"[3]; RLuc readout, 1536 interplate format, read-out: Intraplate Forskolin Control Mean",880 nM
same,activity where reporter expression was driven by the SV40 promoter,SV40 promoter,inactive
"COc1cc([C@@H]2c3cc4c(cc3[C@@H](O[C@@H]3O[C@@H]5CO[C@@H](C)O[C@H]5[C@H](O)[C@H]3O)[C@H]3COC(=O)[C@H]23)OCO4)cc(OC)c1O [etoposide, Etoposide]",reporter output vs DMSO,p53 RE,greater RLU values
"CC(C)(C)c1cc(O)ccc1O [tBHQ, tert-Butylhydroquinone]",reporter output vs DMSO,ARE,greater RLU values
Tunicamycin,induction of Parkin expression,Parkin expression,induce Parkin expression
